Measured values: patent publication US6051596A, “Immunosuppressive compositions” (AnorMED, Inc., priority 1997, dated 2000)

Test system: Lewis-Brown Norway F1 hybrid cardiac allografts in Lewis rat recipients
Assay: Acute cardiac allograft rejection model in rats (procedure of Kupiec-Weglinski)
Type: in vivo
Details: for GRAFT SURVIVAL (days) MEAN ± SD: N=7
Protocol: The therapeutic efficacy of a pharmaceutical composition of the invention was tested according to the procedure of Kupiec-Weglinski, J. W., et al., (1988) Transplant Proc. 2:207-216 (hereinafter "Kupiec-Weglinski") to determine its in vivo potency as an acute transplantation/graft rejection modulator.
Briefly, to preform these experiments, the following protocol was employed. Male inbred adult rats (Lewis-Brown Norway F1 Hybrid rats, obtained from Harlan sprague-Dawley Inc., Indianapolis, Ind.) were used. Lewis-Brown Norway F1 Hybrid cardiac allografts were transplanted to the abdominal great vessels of Lewis recipients. The animals were administered compounds according to the following five distinct regimens.
Protocol I. Pretreatment Protocol--20 mg/kg/day of Compound A was administered orally for 7 consecutive days prior to transplantation (days -7 to -1).
Protocol II Treatment Protocol--20 mg/kg/day of Compound A was administered orally for 7 consecutive post-transplant days (days 0-6) followed by intermittent 5 day courses (days 9-13 and 16-20).
Protocol III Pretreatment and Treatment Protocol--20 mg/kg/day of Compound A was administered orally for 7 consecutive days prior to transplantation (days -7 to -1) followed by intermittent 5 day courses (days 9-13 and 16-20).
Ventricular contractions were assessed daily by palpation through the recipient flank. Rejection was defined as the day of cessation of myocardial contractions and confirmed histologically.

SMILES: CCCC1(CCC)CCC2(CCN(CCCN(C)C)C2)CC1 [Compound A, N,N-dimethyl-8,8-dipropyl-2-azaspiro[4,5]-decane-2-propanamine]
- GRAFT SURVIVAL (days) MEAN ± SD (Protocol I pretreatment: 20 mg/kg/day orally, days -7 to -1): 14.7 ± 5.8 days
- GRAFT SURVIVAL (days) MEAN ± SD (Protocol II treatment: 20 mg/kg/day orally, days 0-6, then days 9-13 and 16-20): 16.7 ± 2.0 days
- GRAFT SURVIVAL (days) MEAN ± SD (Protocol III pretreatment and treatment: 20 mg/kg/day orally, days -7 to -1, then days 9-13 and 16-20): 16.0 ± 4.3 days
- average graft survival time (single compound protocols (pretreatment, treatment or both), 20 mg/kg/day orally, untreated average 7 days): 16 days
